Measurements taken from patent EP0572271B1, “Acyl lactylates as antimicrobial actives” (UNILEVER PLC, priority 1992, dated 1993).

What was measured:
Pseudomonas cepacia = test: Challenge test with repeated bacterial inoculation of preserved compositions; type: cell-based
Description: (§1) This test involved incubating under standard conditions test compositions which have been inoculated with a selected bacterium, yeast or a mixture of moulds. […] Accordingly, the higher the number of "challenges", the better is the preservative substance in preventing or at least delaying microbial spoilage.
(§2) The microorganisms selected for this test were: • i) Pseudomonas cepacia - a gram-negative bacterium, • ii ) Aspergillus niger & Penicillium notatum, - a mixture of moulds.
For the bacterium the method of testing was as follows: • i) Introduce aseptically 99ml of test composition into a 250ml flask and add 1ml of inoculum of one of the test organisms (see above), to provide a dilution of 10^6 cells/ml in the composition. • ii) mix and incubate at 28°C for 24 hours. • iii) remove 1ml of incubated composition from the flask and add to it as diluent 9ml of an aqueous solution containing 0.1% by weight peptone and 2% by weight Tween 80, and mix thoroughly. • iv) place 1ml of diluted sample into a petri dish and add warm, molten agar (40°C) and mix to distribute culture uniformly and allow to set. • v) incubate plates for 3 days at 28°C and then count colonies and note log reduction of count (due to the presence of the preservative in the original culture composition).
The inoculation of the organisms originally introduced into each composition is then repeated at 24 hour intervals, following removal of the first total viable count sample, the plating out and counting procedure being repeated on each occasion. The test is terminated when the samples show a contamination level greater than 10^2 counts per ml on 2 consecutive days. This point is regarded as the failure point for the composition under test.
The greater the number of inoculations of contaminant organisms before this level of contamination is established in the composition, the better the preservative system.

[1] = system: Aspergillus niger & Penicillium notatum; test: Mould challenge test: mould spore suspension inoculated into preserved compositions; type: cell-based; conditions: Example 2: oil-in-water emulsion, pH 5.5, material usually 1.0 wt%; for Mould challenge 1%: 1% by volume spore suspension; for Mould challenge 10%: 10% by volume spore suspension
Description: as §1, §2
The above procedure applies to the inoculation of the bacterium. For testing with the mixed culture of moulds this procedure was varied slightly, as follows:
Two samples of each test composition (9.9ml and 9ml) were transferred to sterile flasks and 0.1ml or 1ml, (i.e. 1% or 10% by volume) of a mould spore suspension (approximately 10^8 spores per ml) was introduced into the respective samples and thoroughly mixed. The inoculated samples were incubated at 28°C for up to 28 days with 1ml samples being aseptically removed for the total viable count as outlines above using Sabourand's dextrose agar after 1, 7, and 28 days.
A composition is classed as "low risk" if mould spores are eliminated in 1 to 2 days. "Medium risk" compositions take 7 to 14 days to eliminate the spores and "high risk" compositions still have surviving mould spores after 14 days incubation.

[2] = system: several types of bacteria; conditions: statement in words on prior art US patent 3,275,503; cited from earlier work
aspergillus niger = conditions: statement in words on prior art US patent 3,275,503; cited from earlier work
[3] = Example 2: oil-in-water emulsion, pH 5.5, material usually 1.0 wt%
[4] = Example 3: shampoo formulation, pH 6.0, material added 1 wt%

CC(C)=CCCC(C)=CCCC(C)=CCO [Farnesol]
No of inoculations to failure (Bacteria) (Pseudomonas cepacia; [3]): 1
Mould challenge 1% [1]: ++++
Mould challenge 10% [1]: ++++

CCCCCC(=O)OC(C)C(=O)O (stereo not drawn) [Hexanoyl lactylate]
No of inoculations to failure (Bacteria) (Pseudomonas cepacia; [3]): >21
No of inoculations to failure (Bacteria) (Pseudomonas cepacia; [4]): >21
Mould challenge 1% [1]: +
Mould challenge 10% [1]: +

CCCCCCCCCCCC(=O)O [Lauric acid]
No of inoculations to failure (Bacteria) (Pseudomonas cepacia; [3]): 1
No of inoculations to failure (Bacteria) (Pseudomonas cepacia; [4]): 1
Mould challenge 1% [1]: ++++
Mould challenge 10% [1]: ++++

CCCCCCCCCCCC(=O)OCC(O)CO (stereo not drawn) [Monolaurin]
No of inoculations to failure (Bacteria) (Pseudomonas cepacia; [3]): 1
No of inoculations to failure (Bacteria) (Pseudomonas cepacia; [4]): 1
Mould challenge 1% [1]: ++++
Mould challenge 10% [1]: ++++

CCCCCCCCCC(=O)OC(C)C(=O)OC(C)C(=O)[O-].CCCCCCCCCC(=O)OC(C)C(=O)OC(C)C(=O)[O-].[Ca+2] (stereo not drawn) [calcium capryl-2 lactylate]
effectiveness against several types of bacteria [2]: very effective
efficacy to inhibit the growth of moulds, like aspergillus niger (aspergillus niger): leaves much to be desired

Octanoyl lactylate
No of inoculations to failure (Bacteria) (Pseudomonas cepacia; [3]): 20
No of inoculations to failure (Bacteria) (Pseudomonas cepacia; [4]): 2
Mould challenge 1% [1]: +
Mould challenge 10% [1]: ++++
